# Assay results as given in patent US7412284B2, “Apparatus for electroporation mediated delivery for drugs and genes” (Genetronics, Inc., priority 1997, dated 2008).
# Entries after “also recorded” stand apart in the source; their conditions may differ. Marks after values point to notes of the source that are not given here.
# Key:
# [1] = system: Human pancreatic xenograft (Panc-4); assay: EPT using MedPulser and bleomycin, Panc-4 xenograft; format: in vivo, nude mice; conditions: up to day 39 of observation
# Excerpt: (§1) Preliminary experiments using MedPulser™ (apparatus of the invention) for treatment of tumor xenografts grown subcutaneously onto nude mice have shown encouraging results. […] Treatment of human prostate xenografts (PC-3) has also shown about 66% complete regression of tumors. (No tumors observed up to 60 days after treatment). Both 4 and 6 needle array are effective in treatment of tumors by EPT.
# [2] = system: PC-3 (human prostate cell line); assay: MedPulser 4 vs 6 needle array in vitro, XTT cell survival; format: cell-based; conditions: bleomycin at 2×10^5 M, 20 hours
# Experimental: Experiments were carried out to compare the efficacy of 6 vs. 4 needle array with MedPulser™ on PC-3 (human prostate cell line) in vitro. Cells were suspended in RPMI media and seeded uniformly at 200,000 cells/ml. Bleomycin at […] was added to the wells (for D+E− and D+E+ only). Cells were electroporated in 24 well plates using the 6-needle and 4-needle array electrodes connected to the MedPulser. The electropulse parameters were 6×99 μs, 1129 V with the 6-needle array and 4×99 μs, 848 V with the 4-needle array. The cells were transferred to 96 well plates and incubated for 20 hours at 37° C. The cell survival was determined using XTT assay which is based on metabolic conversion of XTT to formazan and is measured spectrophotometrically at 450 nm. Only the cells which are live convert XTT to formazan. The percent cell survival values are relative values calculated from the O.D. values of the sample, a control with 100% cell survival (D−E−) and control with 0% cell survival (D−E− with SDS, which lyses all cells).
# [3] = system: non-small cell lung cancer cell line (NSCLC), 177; assay: EPT with bleomycin of NSCLC xenografts in nude mice; format: in vivo
# [4] = system: poorly differentiated human pancreatic tumor (Panc-3); assay: EPT with bleomycin of Panc-3 tumors xenografted in nude mice; format: in vivo, nude mouse; conditions: for Complete Regression (100%), number of mice / Death, number of mice / No Response, number of mice / Partial Regression (≧80%), number of mice / Tumor regrowth, number of mice: of 25 mice treated; for Tumor volume (mm^3) T1: treated mouse T1; for Tumor volume (mm^3) T2: treated mouse T2
# Experimental: The single treatment procedure involved injection of bleomycin (0.5 units in 0.15 ml saline) intratumorally, using fanning, as described herein followed by application of six square wave electrical pulses, ten minutes later, using needle array electrodes as described in the present application, arranged along the circumference of a circle 1 cm in diameter. Needle array of variable diameters (e.g., 0.5 cm, 0.75 cm and 1.5 cm can also be used to accommodate tumors of various sizes. Stoppers of various heights can be inserted at the center of the array to make the penetration depth of the needles into the tumor variable. A built-in mechanism allowed switching of electrodes for maximum coverage of the tumor by the pulsed field. The electrical parameters were: 780 V/cm center field strength and 6×99 μs pulses spaced at 1 sec interval.
# The tumor cell line Panc-3, a poorly differentiated adenocarcinoma cell line of the pancreas, was supplied by AntiCancer, Inc., San Diego. For EPT experiments, tissue taken from the stock mice, where the tumor line was maintained, was thawed and cut into very small pieces about 1 mm each, and 8-10 pieces were surgically xenografted in a subcutaneous sac made in left flank of nude mice, and then closed with 6.0 surgical suture. […] The tumor dimensions were measured and the tumor volume calculated using the formula: (II/6)×a×b×c where a, b, and c a are, respectively, the length, width and thickness of the tumor. 0.5 units Bleomycin (Sigma Chemicals) was dissolved in 0.15 ml of 0.9% NaCl and was injected in each mice intratumorally by fanning for both the control (D+E−) and the treated (D+E+) groups. Ten minutes after the injection, each mouse in the D+E+ group was pulsed from a BTX T820 square wave electroporator with a set of needle array electrodes as described in the present invention. Electrical parameters used were as follows: field strength 1300 V/cm, 6 pulses of 99 μs each, at 1 sec interval.
# The mice were monitored every day for mortality and any signs of a diseased state were noted. The tumor dimensions were measured at regular intervals and tumor growth regression/progression monitored.
# [5] = cited from earlier work
# [6] = system: human prostate xenografts (PC-3); assay: EPT using MedPulser, PC-3 xenograft; format: in vivo, nude mice; conditions: no tumors observed up to 60 days after treatment
# Excerpt: as §1
substance,measurement,setting,value
bleomycin,mice with complete tumor regression,[1],about 75%
same,Avg. % Survival,"[2]; D + E + (4N), 4×99 μs, 848 V, 4-needle array",4.78%
same,Avg. % Survival,"[2]; D + E + (6N), 6×99 μs, 1129 V, 6-needle array",−4.12%
same,Avg. % Survival,"[2]; D + E −, no pulse",27.71%
same,EPT treatment result,"[3]; bleomycin + EPT, NSCLC xenograft",very encouraging results
same,tumor after retreatment,"[3]; recurred tumor retreated at day 27, after 7 days",no evidence of tumor
same,treated mice with no response,[4]; 2/25,8%
same,treated mice that died,"[4]; 20 days after treatment, 1/25",4%
same,treated mice with partial (>80%) regression,"[4]; 28 days following treatment, 5/25",20%
same,treated mice with complete tumor regression,"[4]; 28 days following treatment, 17/25",68%
same,mice with tumor regrowth,"[4]; 35 days after treatment, at a much slower rate",8%
same,histology of tumor samples,"[4]; D+E+ group, 35 days after the treatment",necrotic tumor cell ghosts; also recorded: severe necrosis of the tumor region
same,histology of samples from tumor site,[4]; after 120 days,complete absence of tumor cells
same,cases with no palpable tumor,"[4]; after 120 days of the treatment, 16/25",64%
same,necrosis and edema at the treatment site,[4]; bleomycin 0.5 units intratumoral + pulses,severe necrosis and edema in nearly all the mice
same,tumor volume,"[4]; control group D+E− (drug, no pulsing)",increased dramatically
same,"Complete Regression (100%), number of mice",[4]; 28 days after treatment,17
same,"Death, number of mice",[4]; 28 days after treatment,1
same,"No Response, number of mice",[4]; 28 days after treatment,2
same,"Partial Regression (≧80%), number of mice",[4]; 28 days after treatment,5
same,"Complete Regression (100%), number of mice",[4]; 35 days after treatment,16
same,"No Response, number of mice",[4]; 35 days after treatment,2
same,"Partial Regression (≧80%), number of mice",[4]; 35 days after treatment,3
same,"Complete Regression (100%), number of mice",[4]; 57 days after treatment,16
same,"Partial Regression (≧80%), number of mice",[4]; 57 days after treatment,3
same,"Tumor regrowth, number of mice",[4]; 57 days after treatment,2
same,"No Response, number of mice","[4]; 57 days after treatment, footnote a: mice sacrificed due to increased tumor burden",1^a
same,"Complete Regression (100%), number of mice",[4]; 84 days after treatment,16
same,"No Response, number of mice",[4]; 84 days after treatment,1
same,"Partial Regression (≧80%), number of mice",[4]; 84 days after treatment,3
same,"Death, number of mice","[4]; 84 days after treatment, 1 died after treatment, 1 with no palpable tumor died after 64 days",2^b
same,"Complete Regression (100%), number of mice",[4]; 94 days after treatment,16
same,"No Response, number of mice",[4]; 94 days after treatment,1
same,"Partial Regression (≧80%), number of mice",[4]; 94 days after treatment,3
same,"Tumor regrowth, number of mice","[4]; 94 days after treatment, footnote d: secondary metastatic tumor",1^d
same,"Complete Regression (100%), number of mice",[4]; 120 days after treatment,16
same,"Partial Regression (≧80%), number of mice","[4]; 120 days after treatment, footnote e: fibrous tissue",3^e
same,time monitored to be without tumors,"[4]; representative animals (2/17), then euthanized",243 days
same,tumor volume,[4]; treated group D+E+ (drug + electrical field),substantial reduction in the tumor volume
same,detectable tumor,"[4]; treated mice, after approximately 24 days",essentially no detectable tumor
same,Tumor volume (mm^3) T1,[4]; 0 days after treatment,123.110 mm^3
same,Tumor volume (mm^3) T1,[4]; 1 day after treatment,210.950 mm^3
same,Tumor volume (mm^3) T1,[4]; 8 days after treatment,104.550 mm^3
same,Tumor volume (mm^3) T1,[4]; 15 days after treatment,113.210 mm^3
same,Tumor volume (mm^3) T1,[4]; 18 days after treatment,161.730 mm^3
same,Tumor volume (mm^3) T1,[4]; 24 days after treatment,41.560 mm^3
same,Tumor volume (mm^3) T1,[4]; 28 days after treatment,0 mm^3
same,Tumor volume (mm^3) T1,[4]; 35 days after treatment,0 mm^3
same,Tumor volume (mm^3) T1,[4]; 38 days after treatment,0 mm^3
same,Tumor volume (mm^3) T1,[4]; 43 days after treatment,0 mm^3
same,Tumor volume (mm^3) T2,[4]; 0 days after treatment,178.370 mm^3
same,Tumor volume (mm^3) T2,[4]; 1 day after treatment,252.720 mm^3
same,Tumor volume (mm^3) T2,[4]; 8 days after treatment,211.110 mm^3
same,Tumor volume (mm^3) T2,[4]; 15 days after treatment,226.966 mm^3
same,Tumor volume (mm^3) T2,[4]; 18 days after treatment,246.910 mm^3
same,Tumor volume (mm^3) T2,[4]; 24 days after treatment,47.223 mm^3
same,Tumor volume (mm^3) T2,[4]; 28 days after treatment,0 mm^3
same,Tumor volume (mm^3) T2,[4]; 35 days after treatment,0 mm^3
same,Tumor volume (mm^3) T2,[4]; 38 days after treatment,0 mm^3
same,Tumor volume (mm^3) T2,[4]; 43 days after treatment,0 mm^3
same,log P (P being the partition coefficient between octanol and water),[5],very negative
same,complete regression of tumors,[6],about 66%
